Data from ChEMBL document CHEMBL3769371, “1-[(2E)-3-Phenylprop-2-enoyl]-1H-benzimidazoles as anticancer agents: synthesis, crystal structure analysis and binding studies of the most potent anticancer molecule with serum albumin” (Medchemcomm, 2015).

Assays:
[1] = target: T1, Albumin (Homo sapiens, UniProt P02768); assay: Binding affinity to human serum albumin at 0.25 uM at 303 K by fluorescence microscopic analysis in the presence of K+; format: ADME; conditions: isolated protein
[2] = Cytotoxicity against human SF268 cells after 48 hrs by SRB assay; format: functional; conditions: SF-268, 48 h
[3] = target: T1, Albumin; assay: Binding affinity to human serum albumin at 0.25 uM at 303 K by fluorescence microscopic analysis in the presence of Zn2+; format: ADME; conditions: isolated protein
[4] = Antiproliferative activity against human OVCAR4 cells at 10'5 M; format: functional, OVCAR-4
[5] = target: T1, Albumin; assay: Binding affinity to human serum albumin at 0.25 uM at 303 K by fluorescence microscopic analysis in the presence of Ni2+; format: ADME; conditions: isolated protein
[6] = Cytotoxicity against human SNB75 cells after 48 hrs by SRB assay; format: functional; conditions: SNB-75, 48 h
[7] = Cytotoxicity against human OVCAR4 cells assessed as cell growth at 10^-5 M after 48 hrs by SRB assay; format: functional; conditions: OVCAR-4, 48 h, read-out: Activity
[8] = Cytotoxicity against human HL-60(TB) cells after 48 hrs by SRB assay; format: functional; conditions: HL-60, 48 h
[9] = Cytotoxicity against human DU145 cells after 48 hrs by SRB assay; format: functional; conditions: DU-145, 48 h
[10] = tested on: U-251; assay: Cytotoxicity against human U251 cells assessed as cell growth at 10^-5 M after 48 hrs by SRB assay; format: functional; conditions: U-251, 48 h, read-out: Activity
[11] = target: T1, Albumin; assay: Binding affinity to human serum albumin at 0.25 uM at 303 K by fluorescence microscopic analysis in the presence of Cu2+; format: ADME; conditions: isolated protein
[12] = tested on: MDA-MB-468; assay: Cytotoxicity against human MDA-MB-468 cells assessed as cell growth at 10^-5 M after 48 hrs by SRB assay; format: functional; conditions: MDA-MB-468, 48 h, read-out: Activity
[13] = target: T1, Albumin; assay: Binding affinity to human serum albumin assessed Stern-Volmer quenching constant at 0.25 to 2 uM at 288 K by fluorescence microscopic analysis; format: ADME; conditions: isolated protein
[14] = Cytotoxicity against human RPMI8226 cells after 48 hrs by SRB assay; format: functional; conditions: RPMI-8226, 48 h
[15] = Cytotoxicity against human RXF393 cells assessed as cell growth at 10^-5 M after 48 hrs by SRB assay; format: functional; conditions: RXF 393, 48 h, read-out: Activity
[16] = Cytotoxicity against human SF539 cells after 48 hrs by SRB assay; format: functional; conditions: SF-539, 48 h
[17] = target: T1, Albumin; assay: Binding affinity to human serum albumin at 0.25 to 2 uM at 303 K by fluorescence microscopic analysis in the presence of ibuprofen; format: ADME; conditions: isolated protein
[18] = target: T1, Albumin; assay: Binding affinity to human serum albumin at 0.25 to 2 uM at 303 K by fluorescence microscopic analysis in the absence of site probes; format: ADME; conditions: isolated protein
[19] = target: T1, Albumin; assay: Binding affinity to human serum albumin assessed Stern-Volmer quenching constant at 0.25 to 2 uM at 308 K by fluorescence microscopic analysis; format: ADME; conditions: isolated protein
[20] = tested on: Malme-3M; assay: Antiproliferative activity against human MALME-3M cells at 10'5 M; format: functional
[21] = tested on: M14; assay: Cytotoxicity against human M14 cells assessed as cell growth at 10^-5 M after 48 hrs by SRB assay; format: functional; conditions: M14, 48 h, read-out: Activity
[22] = tested on: NCI-H522; assay: Cytotoxicity against human NCI-H522 cells assessed as cell growth at 10^-5 M after 48 hrs by SRB assay; format: functional; conditions: NCI-H522, 48 h, read-out: Activity
[23] = Cytotoxicity against human HOP62 cells after 48 hrs by SRB assay; format: functional; conditions: HOP-62, 48 h
[24] = Cytotoxicity against human HOP92 cells assessed as cell growth at 10^-5 M after 48 hrs by SRB assay; format: functional; conditions: HOP-92, 48 h, read-out: Activity
[25] = tested on: Malme-3M; assay: Cytotoxicity against human MALME-3M cells after 48 hrs by SRB assay; format: functional
[26] = Cytotoxicity against human OVCAR4 cells after 48 hrs by SRB assay; format: functional; conditions: OVCAR-4, 48 h
[27] = tested on: NCI-H522; assay: Cytotoxicity against human NCI-H522 cells after 48 hrs by SRB assay; format: functional; conditions: NCI-H522, 48 h
[28] = Cytotoxicity against human OVCAR5 cells after 48 hrs by SRB assay; format: functional; conditions: OVCAR-5, 48 h, read-out: LC50 (the source's name)
[29] = tested on: MCF7; assay: Cytotoxicity against human MCF7 cells after 48 hrs by SRB assay; format: functional; conditions: MCF7, 48 h
[30] = Cytotoxicity against human IGROV1 cells assessed as cell growth at 10^-5 M after 48 hrs by SRB assay; format: functional; conditions: IGROV-1, 48 h, read-out: Activity
[31] = read-out: LC50 (the source's name)

T1 sequence (P02768 whole entry): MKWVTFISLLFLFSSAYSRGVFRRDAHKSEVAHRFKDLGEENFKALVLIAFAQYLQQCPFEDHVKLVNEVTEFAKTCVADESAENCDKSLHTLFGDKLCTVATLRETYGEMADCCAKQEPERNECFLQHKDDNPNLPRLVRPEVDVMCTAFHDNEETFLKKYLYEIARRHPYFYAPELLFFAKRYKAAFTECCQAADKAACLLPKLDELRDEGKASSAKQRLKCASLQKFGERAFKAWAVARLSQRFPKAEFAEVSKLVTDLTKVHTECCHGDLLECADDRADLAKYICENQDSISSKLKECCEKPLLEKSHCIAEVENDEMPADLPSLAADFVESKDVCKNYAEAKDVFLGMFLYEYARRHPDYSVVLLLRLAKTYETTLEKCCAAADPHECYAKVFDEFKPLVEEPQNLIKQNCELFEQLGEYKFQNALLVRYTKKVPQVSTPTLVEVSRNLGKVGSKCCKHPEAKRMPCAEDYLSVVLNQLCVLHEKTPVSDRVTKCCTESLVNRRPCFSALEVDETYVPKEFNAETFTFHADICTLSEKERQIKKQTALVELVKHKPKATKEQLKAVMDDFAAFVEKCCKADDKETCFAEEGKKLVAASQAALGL

SMILES: O=C(/C=C/c1ccccc1)n1c(-c2ccc(Cl)cc2)nc2ccccc21
- K [1]: 4.21 ×10³ /mol
- GI50 [2]: 1.45 µM
- TGI [2]: 5.03 µM
- CC50 [2, 31]: 27.9 µM
- K [3]: 2.26 ×10³ /mol
- growth inhibition (GI) [4]: 69.96%
- K [5]: 5.35 ×10³ /mol
- GI50 [6]: 3.13 µM
- TGI [6]: 12.8 µM
- CC50 [6, 31]: 40.5 µM
- growth at 10 µM [7]: 30%
- GI50 [8]: 1.4 µM
- TGI [8]: 4.88 µM
- CC50 [8, 31]: > 100 µM
- GI50 [9]: 1.8 µM
- TGI [9]: 4.93 µM
- CC50 [9, 31]: 17 µM
- growth at 10 µM [10]: -0.39%
- K [11]: 2.44 ×10³ /mol
- growth at 10 µM [12]: -6.61%
- KSV [13]: 2.03 ×10⁵ L/mol
- GI50 [14]: 0.61 µM
- TGI [14]: 3.82 µM
- CC50 [14, 31]: > 100 µM
- growth at 10 µM [15]: -65.2%
- GI50 [16]: 2.5 µM
- TGI [16]: 6.46 µM
- CC50 [16, 31]: 26.1 µM
- K [17]: 5.63 ×10³ /M
- K [18]: 5.68 ×10³ /mol
- KSV [19]: 1.14 ×10⁵ L/mol
- growth inhibition (GI) [20]: 84.12%
- growth at 10 µM [21]: -37.3%
- growth at 10 µM [22]: -72.4%
- GI50 [23]: 1.89 µM
- TGI [23]: 7.3 µM
- CC50 [23, 31]: 35.1 µM
- growth at 10 µM [24]: -39.4%
- GI50 [25]: 0.59 µM
- TGI [25]: 1.91 µM
- CC50 [25, 31]: 4.77 µM
- GI50 [26]: 1.11 µM
- TGI [26]: 2.64 µM
- CC50 [26, 31]: 6.29 µM
- GI50 [27]: 1.53 µM
- TGI [27]: 3.5 µM
- CC50 [27, 31]: 8.04 µM
- CC50 [28]: 49.7 µM
- GI50 [29]: 1.01 µM
- TGI [29]: 9.92 µM
- CC50 [29, 31]: 55.5 µM
- growth at 10 µM [30]: 10.4%
